Common to all, as to assay: Enzyme Inhibition Assay
One assay deals with Coagulation factor XI (Homo sapiens, UniProt P03951). Particulars: pH 7.4; 30 °C.
A further assay addresses Prothrombin (Homo sapiens, UniProt P00734).
A further assay concerns the target Coagulation factor X (Homo sapiens, UniProt P00742).

Among the data in BindingDB's records for doi:10.1021/jm060978s (Daiichi Asubio Medical Research Laboratories, 2006) are IC50 values, retold here.

Where only a bound is given, the exact number is not on record here.

A word on the IC50: it is the concentration that inhibits the measured activity by half. Low values mean greater potency in that assay, high ones weaker potency in that assay.

Chain of Coagulation factor X (P00742 41-179 limits assumed): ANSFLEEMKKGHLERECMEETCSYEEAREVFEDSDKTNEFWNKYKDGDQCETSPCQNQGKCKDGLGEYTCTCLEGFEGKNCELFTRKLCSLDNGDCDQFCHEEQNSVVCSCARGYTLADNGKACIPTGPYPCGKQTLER
Chain of Coagulation factor X (P00742 235-488 limits assumed): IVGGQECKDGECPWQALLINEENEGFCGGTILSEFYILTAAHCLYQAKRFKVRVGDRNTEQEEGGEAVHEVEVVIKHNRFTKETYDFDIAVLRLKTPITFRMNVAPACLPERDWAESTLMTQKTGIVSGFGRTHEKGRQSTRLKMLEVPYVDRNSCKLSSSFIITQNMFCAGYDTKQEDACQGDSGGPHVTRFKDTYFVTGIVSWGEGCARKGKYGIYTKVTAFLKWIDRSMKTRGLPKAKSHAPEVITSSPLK
Chain of Coagulation factor XI (P03951 19-387 limits assumed): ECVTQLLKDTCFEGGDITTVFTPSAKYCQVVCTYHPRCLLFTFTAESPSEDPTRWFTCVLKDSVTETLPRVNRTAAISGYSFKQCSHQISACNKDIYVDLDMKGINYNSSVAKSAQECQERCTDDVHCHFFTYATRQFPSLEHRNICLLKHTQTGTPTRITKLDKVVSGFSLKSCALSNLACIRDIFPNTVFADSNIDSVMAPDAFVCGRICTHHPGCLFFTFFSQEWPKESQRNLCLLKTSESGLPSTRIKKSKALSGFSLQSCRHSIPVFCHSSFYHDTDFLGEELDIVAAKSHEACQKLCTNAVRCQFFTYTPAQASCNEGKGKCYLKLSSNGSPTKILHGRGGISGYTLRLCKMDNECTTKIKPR
Chain of Coagulation factor XI (P03951 388-625 limits assumed): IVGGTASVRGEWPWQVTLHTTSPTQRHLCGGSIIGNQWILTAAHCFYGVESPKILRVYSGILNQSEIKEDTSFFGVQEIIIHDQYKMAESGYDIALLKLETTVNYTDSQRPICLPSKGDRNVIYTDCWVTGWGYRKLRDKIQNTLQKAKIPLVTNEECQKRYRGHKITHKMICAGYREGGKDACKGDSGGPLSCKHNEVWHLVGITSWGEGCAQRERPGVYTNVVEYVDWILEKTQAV

`CC(C)[C@H](NC(=O)[C@H](Cc1ccccc1)NC(=O)c1ccco1)C(=O)N[C@@H](CCCN=C(N)N)C(=O)c1nccs1` [(2S)-N-[(2S)-5-carbamimidamido-1-oxo-1-(1,3-thiazol-2-yl)pentan-2-yl]-2-[(2S)-2-(furan-2-ylformamido)-3-phenylpropanamido]-3-methylbutanamide] displayed an IC50 against Coagulation factor XI of 2.2 µM.
On the same count and under the same terms, then `CC(C)[C@H](NC(=O)[C@H](Cc1ccccc1)NC(=O)Cc1cccs1)C(=O)N[C@@H](CCCN=C(N)N)C(=O)c1nccs1` [(2S)-N-[(2S)-5-carbamimidamido-1-oxo-1-(1,3-thiazol-2-yl)pentan-2-yl]-3-methyl-2-[(2S)-3-phenyl-2-[1-(thiophen-2-yl)acetamido]propanamido]butanamide], with 2.6 µM.
On to `CC(C)[C@H](NC(=O)[C@H](Cc1ccccc1)NC(=O)NCc1ccc(F)cc1)C(=O)N[C@@H](CCCN=C(N)N)C(=O)c1nccs1` [(2S)-N-[(2S)-5-carbamimidamido-1-oxo-1-(1,3-thiazol-2-yl)pentan-2-yl]-2-[(2S)-2-({[(4-fluorophenyl)methyl]carbamoyl}amino)-3-phenylpropanamido]-3-methylbutanamide], for which the IC50 stood at 4.3 µM at Prothrombin and 0.16 µM on Coagulation factor XI.
As to `CCOC(=O)C(CC(C)C)NC(=O)N[C@@H](Cc1ccccc1)C(=O)N[C@H](C(=O)N[C@@H](CCCN=C(N)N)C(=O)c1nccs1)C(C)C` (stereo partly drawn) [ethyl 2-({[(1S)-1-{[(1S)-1-{[(2S)-5-carbamimidamido-1-oxo-1-(1,3-thiazol-2-yl)pentan-2-yl]carbamoyl}-2-methylpropyl]carbamoyl}-2-phenylethyl]carbamoyl}amino)-4-methylpentanoate], the 50% inhibitory concentration (IC50) was found to be 15.4 µM against Coagulation factor X, 2.1 µM on Prothrombin and 0.403 µM on Coagulation factor XI.
Taken in the same sequence, the figures for `CC(C)[C@H](NC(=O)[C@H](Cc1ccccc1)NC(=O)NCc1ccc(Cl)c(Cl)c1)C(=O)N[C@@H](CCCN=C(N)N)C(=O)c1nccs1` [(2S)-N-[(2S)-5-carbamimidamido-1-oxo-1-(1,3-thiazol-2-yl)pentan-2-yl]-2-[(2S)-2-({[(3,4-dichlorophenyl)methyl]carbamoyl}amino)-3-phenylpropanamido]-3-methylbutanamide] were 14.2 µM, 6.7 µM and 0.093 µM.
The corresponding values for `CCOC(=O)C(Cc1ccccc1)NC(=O)N[C@@H](Cc1ccccc1)C(=O)N[C@H](C(=O)N[C@@H](CCCN=C(N)N)C(=O)c1nccs1)C(C)C` (stereo partly drawn) [ethyl 2-({[(1S)-1-{[(1S)-1-{[(2S)-5-carbamimidamido-1-oxo-1-(1,3-thiazol-2-yl)pentan-2-yl]carbamoyl}-2-methylpropyl]carbamoyl}-2-phenylethyl]carbamoyl}amino)-3-phenylpropanoate] are 14.3 µM, 2.1 µM and 0.258 µM.
The corresponding values for `CC(C)[C@H](NC(=O)[C@H](Cc1ccccc1)NC(=O)Nc1ccccc1)C(=O)N[C@@H](CCCN=C(N)N)C(=O)c1nccs1` [(2S)-N-[(2S)-5-carbamimidamido-1-oxo-1-(1,3-thiazol-2-yl)pentan-2-yl]-3-methyl-2-[(2S)-3-phenyl-2-[(phenylcarbamoyl)amino]propanamido]butanamide] are above 20 µM, 0.935 µM and 1.92 µM.
`CC(C)[C@H](NC(=O)[C@H](Cc1ccccc1)NS(=O)(=O)c1ccc(Cl)c(Cl)c1)C(=O)N[C@@H](CCCN=C(N)N)C(=O)c1nccs1` [(2S)-N-[(2S)-5-carbamimidamido-1-oxo-1-(1,3-thiazol-2-yl)pentan-2-yl]-2-[(2S)-2-[(3,4-dichlorobenzene)sulfonamido]-3-phenylpropanamido]-3-methylbutanamide]: 2.3 µM corresponded to half-maximal inhibition at Coagulation factor XI (IC50).
